Measurements from PubChem BioAssay AID2060490 (Molecular Pharmacology Branch, DTP, NCI, 2025).

System: 885512-296-R-J2-PDC complex spheroid viability
Experiment: Anticancer human tumor 885512-296-R-J2-PDC patient-derived breast carcinoma cell line growth inhibition [GQUAD]
Conditions: for IC50: curve of first compound; for viability, T/C: stronger effect = lower value
Description: DNA G-quadruplex Stabilizer Agents in Combinations in Complex Spheroids
A high-throughput screen of multi-cell type tumor spheroids was designed to identify active combinations of DNA G-quadruplex stabilizer agents and targeted small molecules. Complex spheroids include a stromal component modeled by human endothelial cells (HUVEC) and fibroblasts modeled by human mesenchymal stem cells (MSCs). The concentration ranges selected for each drug and investigational agent were based upon clinically achievable concentrations if the clinical Cmax of the agent was known.
Compounds. The drugs and investigational agents: pidnarulex (CX-5461; NSC782164), APTO-253 (NSC789042), BRACO-19 (NSC847499), peposertib (NSC802822), ceralasertib (NSC780249), elimusertib (NSC800525), camonsertib (NSC841442), AZD-1390 (NSC803789), olaparib (NSC753686), talazoparib (NSC767125), ART-558 (NSC835418), sotorasib (NSC818433), MRTX-1133 (NSC836407), SN-38 (NSC673596), topotecan (NSC609699), etoposide (NSC141540), doxorubicin (NSC123127), gemcitabine (NSC613327), 5-fluorouracil (NSC19893), paclitaxel (NSC125973), vemurafenib (NSC761431), panobinostat (NSC761190), R-306465 (JNJ-16241199; NSC773264), adavosertib (NSC754352), TP-3654 (NSC805149), carboplatin (NSC241240), KSQ-4279 (NSC840948), and staurosporine (NSC755774) were obtained from the National Cancer Institute (NCI) Developmental Therapeutics Program Chemical Repository (34). The FDA-approved anticancer drug set is available from the NCI Developmental Therapeutics Program. […] The stock solutions were prepared in dimethyl sulfoxide (DMSO, Sigma-Aldrich, St. Louis, MO, cat. D2650) at 800-fold the tested concentration and stored at -70 degrees C prior to their use. All drugs and investigational agents were tested over a range starting from a high concentration at or near the clinical Cmax and decreasing in half-log increments. If the clinical Cmax for an agent had not been determined, the highest concentration tested was 10 microM.
2.3 Cell Culture. All cells were maintained in an incubator at 37 degrees C and 5% CO2 with 95% humidity. The PDC lines were cultured according to standard operating procedures established by the NCI PDMR. All PDCs were thawed and cultured in Matrigel-coated flasks prepared with a working solution of 1X Ham's F-12 nutrient mix, without supplementation (Invitrogen, cat. 11765054), 100 U/mL penicillin-streptomycin (Invitrogen, cat. 15140122), and 2.5% Matrigel (Corning Inc., cat. 354248) for the first three passages. The 857933-349-R-J2-PDC line was cultured in 6C/Colon 1B media, which includes advanced DMEM/F-12 (Thermo Fisher Scientific, cat. 12634028), 10 mM HEPES (Thermo Fisher Scientific, cat. 15630080), 1X GlutaMAX supplement (Thermo Fisher Scientific, cat. 35050061), 0.1 mg/mL primocin (InvivoGen, cat. ant-pm-2), 10% defined fetal bovine serum, heat inactivated (HyClone Laboratories Inc., cat. SH30070.03HI), 50% L-WRN conditioned media (ATCC, cat. CRL-3276), 1.25 mM N-Acetyl-L-cysteine (Sigma-Aldrich, cat. A9165), 10 mM nicotinamide (Sigma-Aldrich, cat. N0636), 1X B-27 supplement (Thermo Fisher Scientific, cat. 17504044), 1X N-2 supplement (Thermo Fisher Scientific, cat. 17502048), 10 microM Y-27632 dihydrochloride (Tocris Bioscience, cat. 1254), and 50 ng/mL human EGF recombinant protein (Thermo Fisher Scientific, cat. PHG0311). The 485176-168-R4-J1-PDC line was cultured in Panc media, which includes all 6C/Colon 1B media components plus 100 ng/mL human FGF-10 (Thermo Fisher Scientific, cat. 100-26), 500 nM SB-431542 (Selleckchem, cat. S1067), and gastrin (Tocris, cat. 3006).
[…]

[1] = second compound 0.0316 µM, first compound 0.0316 µM
[2] = second compound 0.0316 µM, first compound 0.316 µM
[3] = second compound 0.1 µM, first compound 0.0316 µM
[4] = second compound 0.1 µM, first compound 0.316 µM
[5] = second compound 0.316 µM, first compound 0.0316 µM
[6] = second compound 0.316 µM, first compound 0.316 µM
[7] = second compound 1 µM, first compound 0.0316 µM
[8] = second compound 1 µM, first compound 0.316 µM
[9] = second compound 3.16 µM, first compound 0.0316 µM
[10] = second compound 3.16 µM, first compound 0.316 µM
[11] = second compound 10 µM, first compound 0.0316 µM
[12] = second compound 10 µM, first compound 0.316 µM
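Further: spheroids exposed to the compounds for one week.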
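Wherever viability, T/C is given: percent of tumor spheroid viability relative to DMSO vehicle control wells.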

Cc1[nH]c2ccccc2c1CCNCc1ccc(/C=C/C(=O)NO)cc1 + CN(C)c1ccc(Nc2c3ccc(NC(=O)CCN4CCCC4)cc3nc3cc(NC(=O)CCN4CCCC4)ccc23)cc1
IC50 (second compound 0.0316 µM): 26.3 nM
IC50 (second compound 0.1 µM): 24.8 nM
IC50 (second compound 0.316 µM): 20.3 nM
IC50 (second compound 1 µM): 30.8 nM
IC50 (second compound 3.16 µM): 8.45 nM
IC50 (second compound 10 µM): < 0.999 nM
viability, T/C (second compound 0.0316 µM, first compound 0.000999 µM): 96.5%
viability, T/C (second compound 0.0316 µM, first compound 0.00316 µM): 84.1%
viability, T/C (second compound 0.0316 µM, first compound 0.00999 µM): 70.8%
viability, T/C [1]: 40.1%
viability, T/C (second compound 0.0316 µM, first compound 0.0999 µM): 30.1%
viability, T/C [2]: 3.59%
viability, T/C (second compound 0.1 µM, first compound 0.000999 µM): 95.6%
viability, T/C (second compound 0.1 µM, first compound 0.00316 µM): 91.7%
viability, T/C (second compound 0.1 µM, first compound 0.00999 µM): 64.8%
viability, T/C [3]: 44.1%
viability, T/C (second compound 0.1 µM, first compound 0.0999 µM): 25.3%
viability, T/C [4]: 4.19%
viability, T/C (second compound 0.316 µM, first compound 0.000999 µM): 103%
viability, T/C (second compound 0.316 µM, first compound 0.00316 µM): 93.2%
viability, T/C (second compound 0.316 µM, first compound 0.00999 µM): 63%
viability, T/C [5]: 35.9%
viability, T/C (second compound 0.316 µM, first compound 0.0999 µM): 28.6%
viability, T/C [6]: 4.61%
viability, T/C (second compound 1 µM, first compound 0.000999 µM): 85.7%
viability, T/C (second compound 1 µM, first compound 0.00316 µM): 94.4%
viability, T/C (second compound 1 µM, first compound 0.00999 µM): 63.7%
viability, T/C [7]: 48%
viability, T/C (second compound 1 µM, first compound 0.0999 µM): 29.5%
viability, T/C [8]: 4.03%
viability, T/C (second compound 3.16 µM, first compound 0.000999 µM): 80%
viability, T/C (second compound 3.16 µM, first compound 0.00316 µM): 64.7%
viability, T/C (second compound 3.16 µM, first compound 0.00999 µM): 46.5%
viability, T/C [9]: 30.1%
viability, T/C (second compound 3.16 µM, first compound 0.0999 µM): 24.6%
viability, T/C [10]: 5.49%
viability, T/C (second compound 10 µM, first compound 0.000999 µM): 18.2%
viability, T/C (second compound 10 µM, first compound 0.00316 µM): 17.7%
viability, T/C (second compound 10 µM, first compound 0.00999 µM): 11.3%
viability, T/C [11]: 10.3%
viability, T/C (second compound 10 µM, first compound 0.0999 µM): 13%
viability, T/C [12]: 2.87%

COc1ccc([C@@H](O)c2cc(-c3ncnc4cc(N5CCOCC5)ccc34)c(F)cc2Cl)nn1 + Cc1[nH]c2ccc(F)cc2c1-c1nc2c3cccnc3c3ncccc3c2[nH]1
IC50 (second compound 0.0316 µM): > 10000 nM
IC50 (second compound 0.1 µM): > 10000 nM
IC50 (second compound 0.316 µM): > 10000 nM
IC50 (second compound 1 µM): 4340 nM
IC50 (second compound 3.16 µM): < 31.6 nM
IC50 (second compound 10 µM): < 31.6 nM
viability, T/C [1]: 114%
viability, T/C (second compound 0.0316 µM, first compound 0.1 µM): 92.6%
viability, T/C [2]: 95.5%
viability, T/C (second compound 0.0316 µM, first compound 1 µM): 100%
viability, T/C (second compound 0.0316 µM, first compound 3.16 µM): 94.2%
viability, T/C (second compound 0.0316 µM, first compound 10 µM): 58.7%
viability, T/C [3]: 121%
viability, T/C (second compound 0.1 µM, first compound 0.1 µM): 98%
viability, T/C [4]: 104%
viability, T/C (second compound 0.1 µM, first compound 1 µM): 94%
viability, T/C (second compound 0.1 µM, first compound 3.16 µM): 83.7%
viability, T/C (second compound 0.1 µM, first compound 10 µM): 51.7%
viability, T/C [5]: 103%
viability, T/C (second compound 0.316 µM, first compound 0.1 µM): 96.7%
viability, T/C [6]: 85.9%
viability, T/C (second compound 0.316 µM, first compound 1 µM): 94.4%
viability, T/C (second compound 0.316 µM, first compound 3.16 µM): 73.6%
viability, T/C (second compound 0.316 µM, first compound 10 µM): 57.5%
viability, T/C [7]: 73.7%
viability, T/C (second compound 1 µM, first compound 0.1 µM): 85.9%
viability, T/C [8]: 67.6%
viability, T/C (second compound 1 µM, first compound 1 µM): 68.7%
viability, T/C (second compound 1 µM, first compound 3.16 µM): 59.2%
viability, T/C (second compound 1 µM, first compound 10 µM): 30%
viability, T/C [9]: 11.3%
viability, T/C (second compound 3.16 µM, first compound 0.1 µM): 6.47%
viability, T/C [10]: 12.8%
viability, T/C (second compound 3.16 µM, first compound 1 µM): 5.75%
viability, T/C (second compound 3.16 µM, first compound 3.16 µM): 10.1%
viability, T/C (second compound 3.16 µM, first compound 10 µM): 3.06%
viability, T/C [11]: 1.38%
viability, T/C (second compound 10 µM, first compound 0.1 µM): 2.32%
viability, T/C [12]: 1.63%
viability, T/C (second compound 10 µM, first compound 1 µM): 1.42%
viability, T/C (second compound 10 µM, first compound 3.16 µM): 1.48%
viability, T/C (second compound 10 µM, first compound 10 µM): 1.5%
